# Laboratory results from the Kinase Knowledgebase extract (Sharma et al. 2016).
# Molecular target: CDK2 (UniProt P24941)
# Experiment: Enzyme Assay
row,SMILES,IC50 [µM]
1,O=C(Nc1ccccc1)c1n[nH]cc1-c1ccccc1,< 20
2,O=C(NCC1CCCNC1)c1n[nH]cc1NC(=O)c1c(F)cccc1F (stereo unspecified),< 20
3,NC(=O)c1n[nH]cc1-c1ccccc1,< 750
4,O=C(NCC1CCOCC1)c1n[nH]cc1NC(=O)c1c(F)cccc1F,< 20
5,CC(C)(C)C1CCC(NC(=O)c2n[nH]cc2NC(=O)c2c(F)cccc2F)CC1 (stereo unspecified),< 20
6,O=C(NCc1ccccc1Cl)c1n[nH]cc1NC(=O)c1c(F)cccc1F,< 20
7,O=C(NCc1ccccc1F)c1n[nH]cc1NC(=O)c1c(F)cccc1F,< 20
8,O=C(NCC1CCCCC1)c1n[nH]cc1NC(=O)c1c(F)cccc1F,< 20
9,O=C(NC1CCN(Cc2ccccc2)CC1)c1n[nH]cc1NC(=O)c1c(F)cccc1F,< 20
10,O=C(Nc1ccccc1)c1n[nH]cc1-c1cccc(CO)c1,< 20
11,NC(=O)c1n[nH]cc1NC(=O)c1c(F)cccc1F,< 20
12,O=C(NC1CCN(Cc2ccccc2)C1)c1n[nH]cc1NC(=O)c1c(F)cccc1F (stereo unspecified),< 20
13,O=C(NCCN1CCOCC1)c1n[nH]cc1NC(=O)c1c(F)cccc1F,< 20
14,CC1(C)CC(NC(=O)c2n[nH]cc2NC(=O)c2c(F)cccc2F)CC(C)(C)N1,< 750
15,CNS(=O)(=O)Cc1ccc(CNC(=O)c2n[nH]cc2-c2ccc(Cl)cc2Cl)cc1,< 20
16,CC1CCCC(C)N1CCNC(=O)c1n[nH]cc1NC(=O)c1c(F)cccc1F (stereo unspecified),< 20
17,COc1ccc(CNC(=O)c2n[nH]cc2NC(=O)c2c(F)cccc2F)cc1,< 20
18,O=C(Nc1ccccn1)c1n[nH]cc1NC(=O)c1c(F)cccc1F,< 20
19,O=C(NCc1ccccn1)c1n[nH]cc1NC(=O)c1c(F)cccc1F,< 20

# The next lines start with the values.
row,IC50 [µM],SMILES
1,< 20,O=C(Nc1ccc(F)cc1)c1n[nH]cc1Nc1cnccn1
2,< 20,O=C(Nc1ccc(F)cc1)c1n[nH]cc1NC(=O)C(F)(F)F
3,< 20,O=C(Nc1c[nH]nc1C(=O)Nc1ccc(F)cc1)c1cnc[nH]1
4,< 20,O=C(Cc1c[nH]c2ccccc12)Nc1c[nH]nc1C(=O)Nc1ccc(F)cc1
5,< 20,O=C(Nc1ccc(F)cc1)c1n[nH]cc1NC(=O)c1c(O)cccc1F
6,< 20,O=C(Nc1c[nH]nc1C(=O)Nc1ccc(F)cc1)c1ccccc1F
7,< 20,CN1CCN(c2c[nH]nc2C(=O)Nc2ccc(F)cc2)CC1
8,< 20,Cc1[nH]nc(C(=O)Nc2ccc(F)cc2)c1NC(=O)c1c(F)cccc1F
9,< 20,O=C(Nc1c[nH]nc1C(=O)Nc1ccc(F)cc1)c1ccccc1O
10,< 20,O=C(Nc1c[nH]nc1C(=O)Nc1ccc(F)cc1)c1ccsc1
11,< 20,Nc1nnnn1CC(=O)Nc1c[nH]nc1C(=O)Nc1ccc(F)cc1
12,< 20,CN(c1c[nH]nc1C(=O)Nc1ccc(F)cc1)C1CCCCC1
13,< 20,CN1CCC(Oc2ccc(F)cc2NC(=O)c2n[nH]cc2NC(=O)c2c(F)cccc2F)CC1
14,< 20,CC(C)Nc1c[nH]nc1C(=O)Nc1ccc(F)cc1
15,< 20,O=C(Nc1ccc(F)cc1)c1n[nH]cc1NC(=O)C1(O)CC1
16,< 20,CC(=O)Nc1c(C(=O)Nc2ccc(F)cc2)n[nH]c1C
17,< 20,CC(=O)N1CCC(C(=O)Nc2c[nH]nc2C(=O)Nc2ccc(F)cc2)CC1
18,< 20,O=C(CCc1ccc(Cl)cc1)Nc1c[nH]nc1C(=O)Nc1ccc(F)cc1
19,< 20,O=C(Cc1c[nH]cn1)Nc1c[nH]nc1C(=O)Nc1ccc(F)cc1
20,< 20,Cc1cccc(C(=O)Nc2c[nH]nc2C(=O)Nc2ccc(F)cc2)c1
21,< 20,Cn1cc(CC(=O)Nc2c[nH]nc2C(=O)Nc2ccc(F)cc2)c2ccccc21
22,< 20,O=C(Nc1c[nH]nc1C(=O)Nc1ccc(F)cc1)c1ccc(O)nc1
23,< 20,COc1ccccc1C(=O)Nc1c[nH]nc1C(=O)Nc1ccc(F)cc1
24,< 20,O=C(Nc1ccc(F)cc1)c1n[nH]cc1Nc1nccnc1Cl
25,< 20,O=C(Nc1ccc(F)cc1)c1n[nH]cc1N1CCOCC1
26,< 20,O=C(CO)Nc1c[nH]nc1C(=O)Nc1ccc(F)cc1
27,< 20,CC1(C(=O)Nc2c[nH]nc2C(=O)Nc2ccc(F)cc2)CC1
